Experimental findings from patent publication US8829030B2 (priority 2002, dated 2014) are described below.

Structures can show the parent of a compound that is named as a salt. Where two headings read alike, the source gives them in different places.

This assay deals with recombinant HCV RNA-dependent RNA polymerase (NS5B protein) (Hepatitis C virus genotype 1b, UniProt P26663). The assay can be described thus: biochemical. Set-up: species or system HCV-Bk strain.
recombinant HCV RNA-dependent RNA polymerase (NS5B protein), sequence (P26663 2420-3010 limits assumed): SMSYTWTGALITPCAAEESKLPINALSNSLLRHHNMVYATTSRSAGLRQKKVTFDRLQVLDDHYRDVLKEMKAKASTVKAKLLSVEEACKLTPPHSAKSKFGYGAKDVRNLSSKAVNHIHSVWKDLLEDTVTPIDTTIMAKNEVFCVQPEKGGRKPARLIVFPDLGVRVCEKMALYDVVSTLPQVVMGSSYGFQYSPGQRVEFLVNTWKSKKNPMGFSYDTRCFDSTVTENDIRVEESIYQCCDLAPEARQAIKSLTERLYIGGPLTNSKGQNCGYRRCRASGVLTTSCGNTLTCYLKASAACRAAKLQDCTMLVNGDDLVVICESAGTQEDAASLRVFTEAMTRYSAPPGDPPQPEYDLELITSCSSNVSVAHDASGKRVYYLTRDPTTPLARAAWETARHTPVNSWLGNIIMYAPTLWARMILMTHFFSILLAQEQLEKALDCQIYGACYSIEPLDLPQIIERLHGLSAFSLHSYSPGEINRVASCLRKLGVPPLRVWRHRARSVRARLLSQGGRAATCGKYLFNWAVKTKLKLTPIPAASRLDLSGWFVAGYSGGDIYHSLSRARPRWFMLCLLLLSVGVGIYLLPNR

One may read the IC50 as the concentration that gives 50% inhibition. As for `CC(C)N(C(=O)[C@H]1CC[C@H](C)CO1)c1cc(-c2ccccc2)sc1C(=O)O` (relative stereo) [Compound 27, 3-[Isopropyl-(trans-5-methyl-tetrahydro-pyran-2-carbonyl)-amino]-5-phenyl-thiophene-2-carboxylic acid], the IC50 is < 5 µM.

For the compound `C[C@H]1CC[C@H](C(=O)N(c2cc(-c3ccccc3)sc2C(=O)O)C2CC[S+]([O-])CC2)CC1` (relative stereo) [Compound 68, 3-[(trans-4-Methyl-cyclohexanecarbonyl)-(1-oxo-tetrahydro-thiopyran-4-yl)-amino]-5-phenyl-thiophene-2-carboxylic acid], the IC50 is < 5 µM. The same measure, in the same setting: as for `CC1(O)CCC(N(c2cc(-c3ccccc3)sc2C(=O)O)C(=O)[C@H]2CC[C@@H](C)CC2)CC1` (relative stereo) [Compound 86, cis-3-[(4-Hydroxy-4-methyl-cyclohexyl)-(4-methyl-cyclohexanecarbonyl)-amino]-5-phenyl-thiophene-2-carboxylic acid], the figure is < 5 µM; as for `C[C@H]1CC[C@H](C(=O)N(c2cc(-c3ccccc3)sc2C(=O)O)[C@H]2CCC[C@@H](O)C2)CC1` (stereo in doubt) [Compound 87, 3-[(3-hydroxy-cyclohexyl)-(4-methyl-cyclohexanecarbonyl)-amino]-5-phenyl-thiophene-2-carboxylic acid], < 5 µM. `C[C@H]1CC[C@H](C(=O)N(c2cc(-c3ccccc3)sc2C(=O)O)[C@H]2CCC[C@H](O)C2)CC1` (stereo in doubt) [Compound 89, 3-[(3-hydroxy-cyclohexyl)-(4-methyl-cyclohexanecarbonyl)-amino]-5-phenyl-thiophene-2-carboxylic acid]: the IC50 was < 5 µM. Same read-out and setting: as for `CC1CCC(C(=O)N(CC2CCCNC2)c2cc(-c3ccccc3)sc2C(=O)O)CC1` (stereo not shown) [Compound 1, 3-{[(2-carboxy-5-phenyl-thiophen-3-yl)-(4-methyl-cyclohexanecarbonyl)-amino]-methyl}-piperidinium; trifluoro-acetate], the figure is < 5 µM. On to `CC1CCC(C(=O)N(CC2CCCCN2)c2cc(-c3ccccc3)sc2C(=O)O)CC1` (stereo not shown) [Compound 2, 2-{[(2-carboxy-5-phenyl-thiophen-3-yl)-(4-methyl-cyclohexanecarbonyl)-amino]-methyl}-piperidinium; trifluoro-acetate], for which the IC50 is < 5 µM.

Take `CC1CCC(C(=O)N(Cc2cccnc2)c2cc(-c3ccccc3)sc2C(=O)O)CC1` (stereo not shown) [Compound 3, 3-[(4-methyl-cyclohexanecarbonyl)-pyridin-3-ylmethyl-amino]-5-phenyl-thiophene-2-carboxylic acid]: the IC50 is < 5 µM.

`CC1CCC(C(=O)N(Cc2ccncc2)c2cc(-c3ccccc3)sc2C(=O)O)CC1` (stereo not shown) [Compound 4, 3-[(4-methyl-cyclohexanecarbonyl)-pyridin-4-ylmethyl-amino]-5-phenyl-thiophene-2-carboxylic acid]: the IC50 is < 5 µM. As for `CC1CCC(C(=O)N(c2cc(-c3cccc(F)c3)sc2C(=O)O)C(C)C)CC1` (stereo not shown) [Compound 5, 5-(3-fluoro-phenyl)-3-[isopropyl-(4-methyl-cyclohexanecarbonyl)-amino]-thiophene-2-carboxylic acid], under “read-out: Activity (polymerase activity, IC50)”, the IC50 is < 5 µM. On to `CC1CCC(C(=O)N(c2cc(-c3ccccc3)sc2C(=O)O)C2CCCNCC2)CC1` (stereo not shown) [Compound 6, 3-[azepan-4-yl-(4-methyl-cyclohexanecarbonyl)-amino]-5-phenyl-thiophene-2-carboxylic acid], for which the IC50 is < 5 µM. Regarding `O=C(O)c1sc(-c2ccccc2)cc1N(CC1OCCO1)C(=O)c1ccc(Cl)cc1Cl` [Compound 7, 3-[(2,4-dichloro-benzoyl)-[1,3]dioxolan-2-ylmethyl-amino]-5-phenyl-thiophene-2-carboxylic acid], the IC50 was < 5 µM. For the compound `CC1CCC(C(=O)N(CC2OCCO2)c2cc(-c3ccccc3)sc2C(=O)O)CC1` (stereo not shown) [Compound 8, 3-[[1,3]dioxolan-2-ylmethyl-(4-methyl-cyclohexanecarbonyl)-amino]-5-phenyl-thiophene-2-carboxylic acid], the IC50 was < 5 µM. The same measure, in the same setting: the figure for `CC1CCC(F)(C(=O)N(c2cc(-c3ccccc3)sc2C(=O)O)C(C)C)CC1` (stereo not drawn) [Compound 9, Trans-3-[(1-Fluoro-4-methyl-cyclohexanecarbonyl)-isopropyl-amino]-5-phenyl-thiophene-2-carboxylic acid] is < 5 µM; for `CC(=O)NC1CC(C)CCC1C(=O)N(c1cc(-c2ccccc2)sc1C(=O)O)C(C)C` (stereo not shown) [Compound 12, 3-[(2-acetylamino-4-methyl-cyclohexanecarbonyl)-isopropyl-amino]-5-phenyl-thiophene-2-carboxylic acid] it is 5 to 20 µM. On the same count and under the same terms, as for `CC1CCC(C(=O)N(c2cc(-c3ccccc3)sc2C(=O)O)C2CCC(=O)CC2)CC1` (stereo not shown) [Compound 13, 3-[(4-methyl-cyclohexanecarbonyl)-(4-oxo-cyclohexyl)-amino]-5-phenyl-thiophene-2-carboxylic acid], the figure is < 5 µM; as for `CC1CCC(C(=O)N(Cc2ccccn2)c2cc(-c3ccccc3)sc2C(=O)O)CC1` (stereo not shown) [Compound 14, 3-[(4-methyl-cyclohexanecarbonyl)-pyridin-2-ylmethyl-amino]-5-phenyl-thiophene-2-carboxylic acid], < 5 µM.

As to `C[C@H]1CC[C@H](C(=O)N(c2cc(-c3ccccc3)sc2C(=O)O)[C@H]2CC[C@H](O)CC2)CC1` [Compound 15, 3-[(trans-4-Hydroxy-cyclohexyl)-(trans-4-methyl-cyclohexanecarbonyl)-amino]-5-phenyl-thiophene-2-carboxylic acid], the IC50 was < 5 µM.

On to `CC1CCC(C(=O)N(c2cc(-c3ccccc3)sc2C(=O)O)C2CCC(=NO)CC2)CC1` (stereo not shown) [Compound 16, 3-[(4-hydroxyimino-cyclohexyl)-(4-methyl-cyclohexanecarbonyl)-amino]-5-phenyl-thiophene-2-carboxylic acid], for which the half-maximal inhibitory concentration (IC50) is < 5 µM. Same read-out and setting: as for `CC1=CCC(C(=O)N(c2cc(-c3ccccc3)sc2C(=O)O)C(C)C)CC1` (stereo not shown) [Compound 17, 3-[isopropyl-(4-methyl-cyclohex-3-enecarbonyl)-amino]-5-phenyl-thiophene-2-carboxylic acid], the figure is < 5 µM; as for `CCC(C)C(CN=[N+]=[N-])N(C(=O)c1ccc(Cl)cc1Cl)c1cc(-c2ccccc2)sc1C(=O)O` (stereo not shown) [Compound 18, 3-[(1-azidomethyl-2-methyl-butyl)-(2,4-dichloro-benzoyl)-amino]-5-phenyl-thiophene-2-carboxylic acid], < 5 µM; as for `CCC(C)C(C[NH3+])N(C(=O)c1ccccc1Cl)c1cc(-c2ccccc2)sc1C(=O)O` (stereo not shown) [Compound 19, 2-[(2-carboxy-5-phenyl-thiophen-3-yl)-(2-chloro-benzoyl)-amino]-3-methyl-pentyl-ammonium trifluoroacetate], > 20 µM.

Take `CCC(C)C(CN)N(C(=O)c1ccc(Cl)cc1Cl)c1cc(-c2ccccc2)sc1C(=O)O` (stereo not shown) [Compound 20, 3-[(1-aminomethyl-2-methyl-butyl)-(2,4-dichloro-benzoyl)-amino]-5-phenyl-thiophene-2-carboxylic acid]: the IC50 was 5 to 20 µM. Same read-out and setting: as for `CC1COC(C(=O)N(c2cc(-c3ccccc3)sc2C(=O)O)C(C)C)OC1` (stereo not shown) [Compound 22, 3-[isopropyl-(5-methyl-[1,3]dioxane-2-carbonyl)-amino]-5-phenyl-thiophene-2-carboxylic acid], the figure is 5 to 20 µM; as for `CC(C)N(C(=O)[C@@H]1CC[C@@H](C)C[C@@H]1O)c1cc(-c2ccc(F)cc2)sc1C(=O)O` [Compound 24], < 5 µM.

Consider `CON=C1CCC(N(C(=O)C2CCC(C)CC2)c2cc(-c3ccccc3)sc2C(=O)O)CC1` (stereo not shown) [Compound 25, 3-[(4-methoxyimino-cyclohexyl)-(4-methyl-cyclohexanecarbonyl)-amino]-5-phenyl-thiophene-2-carboxylic acid], for which the IC50 is < 5 µM. On to `CC(C)N(C(=O)C1=CC[C@H](C)CC1)c1cc(-c2ccc(F)cc2)sc1C(=O)O` [Compound 26, (4R)-5-(4-Fluoro-phenyl)-3-[isopropyl-(4-methyl-cyclohex-1-enecarbonyl)-amino]-thiophene-2-carboxylic acid], for which the IC50 is < 5 µM.

Turning to `C=C1CCC(C(=O)N(c2cc(-c3ccccc3)sc2C(=O)O)C(C)C)CC1` [Compound 28, 3-[isopropyl-(4-methylene-cyclohexanecarbonyl)-amino]-5-phenyl-thiophene-2-carboxylic acid], the IC50 was < 5 µM. On the same count and under the same terms, as for `CC1CCC(C(=O)N(c2cc(-c3ccccc3)sc2C(=O)O)C(C)C)OC1` (stereo not drawn) [Compound 29, 3-[Isopropyl-(cis-5-methyl-tetrahydro-pyran-2-carbonyl)-amino]-5-phenyl-thiophene-2-carboxylic acid], the figure is 5 to 20 µM. On the same count and under the same terms, the figure for `CC1=CCC(C(=O)N(c2cc(-c3ccccc3)sc2C(=O)O)C(C)C)OC1` (stereo not shown) [Compound 30, 3-[isopropyl-(5-methyl-3,6-dihydro-2H-pyran-2-carbonyl)-amino]-5-phenyl-thiophene-2-carboxylic acid] is < 5 µM; for `CC1CCC(C(=O)N(c2cc(-c3ccccc3)sc2C(=O)O)C2CCOCC2)C(O)C1` (stereo not shown) [Compound 31, 3-[(2-hydroxy-4-methyl-cyclohexanecarbonyl)-(tetrahydro-pyran-4-yl)-amino]-5-phenyl-thiophene-2-carboxylic acid] it is < 5 µM. Still for that read-out and setting: the figure for `CC1CCC(C(=O)N(c2cc(-c3ccccc3)sc2C(=O)O)C(C)CN=[N+]=[N-])CC1` (stereo not shown) [Compound 32, 3-[(2-azido-1-methyl-ethyl)-(4-methyl-cyclohexanecarbonyl)-amino]-5-phenyl-thiophene-2-carboxylic acid] is < 5 µM.

Take `C[C@H]1CC[C@H](C(=O)N(c2cc(-c3ccccc3)sc2C(=O)O)C2CCSCC2)CC1` [Compound 34, 3-[(trans-4-Methyl-cyclohexanecarbonyl)-(tetrahydro-thiopyran-4-yl)-amino]-5-phenyl-thiophene-2-carboxylic acid]: the IC50 was < 5 µM.

Regarding `CC1CCC(C(=O)N(CC2CCCN(C)C2)c2cc(-c3ccccc3)sc2C(=O)O)CC1` (stereo not shown) [Compound 35, 3-{[(2-carboxy-5-phenyl-thiophen-3-yl)-(4-methyl-cyclohexanecarbonyl)-amino]-methyl}-1-methyl-piperidinium chloride], the IC50 was < 5 µM.
